Measured values reported in PubChem BioAssay AID2060892 (Molecular Pharmacology Branch, DTP, NCI, 2025).

System: HOP-62 complex spheroids with HUVEC/MSC, viability
Experiment: Anticancer human tumor HOP-62 cell line growth inhibition [RAS];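 note: spheroids exposed to agents for seven days before readout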;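 for viability, T/C: 100% = DMSO vehicle control viability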
Settings: for IC50: curve of first compound; for viability, T/C: stronger effect = lower value
Procedure, shortened: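 Multi-cell-type spheroids: tumor cells plus HUVEC endothelial cells and mesenchymal stem cells. RAS-pathway inhibitors were combined with targeted agents, each dosed in half-log steps down from clinical Cmax, or from 10 microM when Cmax was unknown.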

NC1c2ccccc2OC12CCN(c1cnc3c(N4CCCc5ncccc54)n[nH]c3n1)CC2 (configuration not stated) + CCn1c(-c2cccnc2C(C)OC)c2c3cc(ccc31)N1CCOC(CC(NC(=O)C(C(C)C)N(C)C(=O)C3(F)CCN(C(=O)C#CC(C)(C)N(C)C)CC3)C(=O)N3CCCC(N3)C(=O)OCC(C)(C)C2)C1
IC50 (second compound 0.000949 µM): 183 nM
IC50 (second compound 0.003 µM): 429 nM
IC50 (second compound 0.00949 µM): 52.7 nM
IC50 (second compound 0.03 µM): 64.6 nM
IC50 (second compound 0.0949 µM): 39.1 nM
IC50 (second compound 0.3 µM): < 31.6 nM
viability, T/C (second compound 0.000949 µM, first compound 0.0316 µM): 91.2%
viability, T/C (second compound 0.000949 µM, first compound 0.1 µM): 70.6%
viability, T/C (second compound 0.000949 µM, first compound 0.316 µM): 27.8%
viability, T/C (second compound 0.000949 µM, first compound 1 µM): 44.5%
viability, T/C (second compound 0.000949 µM, first compound 3.16 µM): 33.4%
viability, T/C (second compound 0.000949 µM, first compound 10 µM): 19.4%
viability, T/C (second compound 0.003 µM, first compound 0.0316 µM): 69.4%
viability, T/C (second compound 0.003 µM, first compound 0.1 µM): 48.5%
viability, T/C (second compound 0.003 µM, first compound 0.316 µM): 60.5%
viability, T/C (second compound 0.003 µM, first compound 1 µM): 23.9%
viability, T/C (second compound 0.003 µM, first compound 3.16 µM): 19.3%
viability, T/C (second compound 0.003 µM, first compound 10 µM): 9.81%
viability, T/C (second compound 0.00949 µM, first compound 0.0316 µM): 60%
viability, T/C (second compound 0.00949 µM, first compound 0.1 µM): 35.3%
viability, T/C (second compound 0.00949 µM, first compound 0.316 µM): 29.6%
viability, T/C (second compound 0.00949 µM, first compound 1 µM): 22.7%
viability, T/C (second compound 0.00949 µM, first compound 3.16 µM): 14.8%
viability, T/C (second compound 0.00949 µM, first compound 10 µM): 13.2%
viability, T/C (second compound 0.03 µM, first compound 0.0316 µM): 64.1%
viability, T/C (second compound 0.03 µM, first compound 0.1 µM): 42.1%
viability, T/C (second compound 0.03 µM, first compound 0.316 µM): 24%
viability, T/C (second compound 0.03 µM, first compound 1 µM): 28.3%
viability, T/C (second compound 0.03 µM, first compound 3.16 µM): 12%
viability, T/C (second compound 0.03 µM, first compound 10 µM): 14.6%
viability, T/C (second compound 0.0949 µM, first compound 0.0316 µM): 53.3%
viability, T/C (second compound 0.0949 µM, first compound 0.1 µM): 35.5%
viability, T/C (second compound 0.0949 µM, first compound 0.316 µM): 20.7%
viability, T/C (second compound 0.0949 µM, first compound 1 µM): 16.8%
viability, T/C (second compound 0.0949 µM, first compound 3.16 µM): 11.5%
viability, T/C (second compound 0.0949 µM, first compound 10 µM): 14.7%
viability, T/C (second compound 0.3 µM, first compound 0.0316 µM): 44.4%
viability, T/C (second compound 0.3 µM, first compound 0.1 µM): 28.6%
viability, T/C (second compound 0.3 µM, first compound 0.316 µM): 18.4%
viability, T/C (second compound 0.3 µM, first compound 1 µM): 15.6%
viability, T/C (second compound 0.3 µM, first compound 3.16 µM): 13.5%
viability, T/C (second compound 0.3 µM, first compound 10 µM): 15.2%
